Experimental data taken from ChEMBL document CHEMBL5678810.

Columns and labels:
[1] = biological target: Ephrin type-B receptor 2 (Homo sapiens) (UniProt P29323); assay: Inhibition of T7 bacteriophage fused human EPHB2 at 10 uM by KINOMEscan analysis relative to control
[2] = system: Phosphatidylinositol 4,5-bisphosphate 3-kinase catalytic subunit alpha isoform (Homo sapiens), P42336 [M1043I]; assay: Inhibition of T7 bacteriophage fused human PIK3CA M1043I mutant at 10 uM by KINOMEscan analysis relative to control
[3] = biological target: Serine/threonine-protein kinase LATS2 (Homo sapiens) (UniProt Q9NRM7); assay: Inhibition of T7 bacteriophage fused human LATS2 at 10 uM by KINOMEscan analysis relative to control; values are per cent of control
[4] = biological target: Non-receptor tyrosine-protein kinase TNK1 (Homo sapiens) (UniProt Q13470); assay: Inhibition of T7 bacteriophage fused human TNK1 at 10 uM by KINOMEscan analysis relative to control
[5] = biological target: Tyrosine-protein kinase FRK (Homo sapiens) (UniProt P42685); assay: Inhibition of T7 bacteriophage fused human FRK at 10 uM by KINOMEscan analysis relative to control; values are per cent of control
Tyrosine-protein kinase FRK (Homo sapiens), sequence (P42685 whole entry, the tested form may be a part): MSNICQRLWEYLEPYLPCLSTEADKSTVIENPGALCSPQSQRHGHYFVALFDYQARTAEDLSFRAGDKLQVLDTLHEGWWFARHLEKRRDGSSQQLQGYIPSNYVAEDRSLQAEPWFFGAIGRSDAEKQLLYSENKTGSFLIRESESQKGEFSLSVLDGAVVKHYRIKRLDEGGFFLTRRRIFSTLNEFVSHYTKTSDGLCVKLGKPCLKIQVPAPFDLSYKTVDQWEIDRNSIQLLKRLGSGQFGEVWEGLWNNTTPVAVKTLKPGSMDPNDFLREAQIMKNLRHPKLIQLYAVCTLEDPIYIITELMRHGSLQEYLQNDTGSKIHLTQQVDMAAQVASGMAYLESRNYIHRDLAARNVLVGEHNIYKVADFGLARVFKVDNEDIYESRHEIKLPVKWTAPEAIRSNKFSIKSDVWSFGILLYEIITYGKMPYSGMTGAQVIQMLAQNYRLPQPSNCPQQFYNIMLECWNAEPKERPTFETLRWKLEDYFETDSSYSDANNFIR

[6] = biological target: Serine/threonine-protein kinase MRCK gamma (Homo sapiens) (UniProt Q6DT37); assay: Inhibition of T7 bacteriophage fused human DMPK2 at 10 uM by KINOMEscan analysis relative to control
Serine/threonine-protein kinase MRCK gamma (Homo sapiens), sequence (Q6DT37 whole entry, the tested form may be a part): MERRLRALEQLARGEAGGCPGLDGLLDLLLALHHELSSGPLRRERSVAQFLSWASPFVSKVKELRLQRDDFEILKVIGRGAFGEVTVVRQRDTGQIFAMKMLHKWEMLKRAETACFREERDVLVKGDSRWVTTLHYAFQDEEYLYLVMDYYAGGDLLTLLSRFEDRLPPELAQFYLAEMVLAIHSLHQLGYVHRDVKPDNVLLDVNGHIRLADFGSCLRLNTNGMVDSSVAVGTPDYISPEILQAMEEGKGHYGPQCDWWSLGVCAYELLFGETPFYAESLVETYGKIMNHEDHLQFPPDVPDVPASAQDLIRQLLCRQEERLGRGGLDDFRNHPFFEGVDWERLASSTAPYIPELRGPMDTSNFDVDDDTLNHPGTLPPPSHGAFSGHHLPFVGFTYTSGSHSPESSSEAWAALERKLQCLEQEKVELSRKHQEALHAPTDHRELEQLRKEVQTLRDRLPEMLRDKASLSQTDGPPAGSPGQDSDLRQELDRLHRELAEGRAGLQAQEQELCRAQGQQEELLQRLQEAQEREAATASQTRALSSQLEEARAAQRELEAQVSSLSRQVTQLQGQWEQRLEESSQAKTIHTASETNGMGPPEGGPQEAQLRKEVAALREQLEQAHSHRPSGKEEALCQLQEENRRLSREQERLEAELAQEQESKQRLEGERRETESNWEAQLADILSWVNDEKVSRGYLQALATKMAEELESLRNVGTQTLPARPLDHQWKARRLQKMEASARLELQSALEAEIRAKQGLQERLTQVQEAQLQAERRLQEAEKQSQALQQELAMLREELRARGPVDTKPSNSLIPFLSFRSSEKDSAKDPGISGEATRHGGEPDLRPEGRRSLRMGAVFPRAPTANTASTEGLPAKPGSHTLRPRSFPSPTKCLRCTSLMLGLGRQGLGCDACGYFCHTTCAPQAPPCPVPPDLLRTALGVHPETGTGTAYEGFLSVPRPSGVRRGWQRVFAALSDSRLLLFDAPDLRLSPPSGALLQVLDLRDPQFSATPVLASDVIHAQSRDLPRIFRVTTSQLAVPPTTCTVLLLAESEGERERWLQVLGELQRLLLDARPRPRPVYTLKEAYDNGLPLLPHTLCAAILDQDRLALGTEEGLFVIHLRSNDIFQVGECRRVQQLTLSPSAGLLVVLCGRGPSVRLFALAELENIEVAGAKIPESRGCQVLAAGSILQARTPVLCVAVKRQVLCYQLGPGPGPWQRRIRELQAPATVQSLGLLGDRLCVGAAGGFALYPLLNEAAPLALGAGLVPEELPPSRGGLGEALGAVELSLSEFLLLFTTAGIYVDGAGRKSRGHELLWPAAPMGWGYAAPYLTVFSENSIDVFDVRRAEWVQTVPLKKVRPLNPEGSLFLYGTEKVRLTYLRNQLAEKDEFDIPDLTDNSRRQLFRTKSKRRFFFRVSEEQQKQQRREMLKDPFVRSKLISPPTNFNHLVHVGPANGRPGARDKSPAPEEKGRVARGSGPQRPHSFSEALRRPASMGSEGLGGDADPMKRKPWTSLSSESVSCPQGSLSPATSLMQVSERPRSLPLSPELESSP

[7] = system: Receptor-type tyrosine-protein kinase FLT3 (Homo sapiens), P36888 [K663Q]; assay: Inhibition of T7 bacteriophage fused human FLT3 K663Q mutant at 10 uM by KINOMEscan analysis relative to control
[8] = biological target: Cyclin-dependent kinase 7 (Homo sapiens) (UniProt P50613); assay: Inhibition of T7 bacteriophage fused human CDK7 at 10 uM by KINOMEscan analysis relative to control
Cyclin-dependent kinase 7 (Homo sapiens), sequence (P50613 whole entry, the tested form may be a part): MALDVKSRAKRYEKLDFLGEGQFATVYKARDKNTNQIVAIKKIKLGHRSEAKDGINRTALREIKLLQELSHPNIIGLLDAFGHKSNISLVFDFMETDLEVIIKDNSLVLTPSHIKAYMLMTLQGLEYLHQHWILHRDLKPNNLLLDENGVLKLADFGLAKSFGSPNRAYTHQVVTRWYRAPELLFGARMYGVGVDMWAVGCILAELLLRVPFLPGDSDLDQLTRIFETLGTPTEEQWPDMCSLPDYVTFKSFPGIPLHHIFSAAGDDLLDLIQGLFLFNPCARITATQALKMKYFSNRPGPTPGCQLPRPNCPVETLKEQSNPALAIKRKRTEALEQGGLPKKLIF

[9] = biological target: Tyrosine-protein kinase ZAP-70 (Homo sapiens) (UniProt P43403); assay: Inhibition of T7 bacteriophage fused human ZAP70 at 10 uM by KINOMEscan analysis relative to control
[10] = biological target: Serine/threonine-protein kinase PknB (Mycobacterium tuberculosis) (UniProt P9WI81); assay: Inhibition of T7 bacteriophage fused […] tuberculosis PKNB at 10 uM by KINOMEscan analysis relative to control
[11] = biological target: Ankyrin repeat and protein kinase domain-containing protein 1 (Homo sapiens) (UniProt Q8NFD2); assay: Inhibition of T7 bacteriophage fused human ANKK1 at 10 uM by KINOMEscan analysis relative to control
[12] = biological target: Serine/threonine-protein kinase/endoribonuclease IRE1 (Homo sapiens) (UniProt O75460); assay: Inhibition of T7 bacteriophage fused human ERN1 at 10 uM by KINOMEscan analysis relative to control; values are per cent of control
Serine/threonine-protein kinase/endoribonuclease IRE1 (Homo sapiens), sequence (O75460 19-977 limits assumed): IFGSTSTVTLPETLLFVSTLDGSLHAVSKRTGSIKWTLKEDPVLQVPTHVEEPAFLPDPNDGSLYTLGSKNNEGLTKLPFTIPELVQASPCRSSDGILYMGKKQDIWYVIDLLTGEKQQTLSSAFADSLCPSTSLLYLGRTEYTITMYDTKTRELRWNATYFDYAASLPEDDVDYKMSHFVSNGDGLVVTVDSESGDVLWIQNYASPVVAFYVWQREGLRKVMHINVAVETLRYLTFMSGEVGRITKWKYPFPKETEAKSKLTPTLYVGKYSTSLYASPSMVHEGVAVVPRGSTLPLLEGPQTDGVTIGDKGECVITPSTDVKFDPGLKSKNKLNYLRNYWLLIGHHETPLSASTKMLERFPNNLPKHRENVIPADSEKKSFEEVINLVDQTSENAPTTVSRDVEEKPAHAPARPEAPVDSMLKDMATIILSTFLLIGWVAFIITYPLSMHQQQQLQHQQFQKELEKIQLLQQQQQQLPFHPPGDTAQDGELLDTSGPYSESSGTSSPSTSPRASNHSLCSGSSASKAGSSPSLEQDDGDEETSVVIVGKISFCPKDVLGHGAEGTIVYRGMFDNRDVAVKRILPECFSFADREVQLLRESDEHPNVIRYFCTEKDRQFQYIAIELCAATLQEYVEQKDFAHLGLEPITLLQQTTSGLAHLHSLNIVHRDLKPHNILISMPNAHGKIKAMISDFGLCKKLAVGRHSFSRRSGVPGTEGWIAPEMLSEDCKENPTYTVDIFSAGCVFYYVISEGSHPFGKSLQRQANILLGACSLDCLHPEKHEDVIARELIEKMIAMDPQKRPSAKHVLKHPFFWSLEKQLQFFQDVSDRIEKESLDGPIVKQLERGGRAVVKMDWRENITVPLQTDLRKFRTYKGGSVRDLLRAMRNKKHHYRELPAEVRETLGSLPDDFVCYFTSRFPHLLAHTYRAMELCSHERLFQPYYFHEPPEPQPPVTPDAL

[13] = biological target: ALK tyrosine kinase receptor (Homo sapiens) (UniProt Q9UM73); assay: Inhibition of T7 bacteriophage fused human ALK at 10 uM by KINOMEscan analysis relative to control
[14] = system: Phosphatidylinositol 4,5-bisphosphate 3-kinase catalytic subunit alpha isoform (Homo sapiens), P42336 [I800L]; assay: Inhibition of T7 bacteriophage fused human PIK3CA I800L mutant at 10 uM by KINOMEscan analysis relative to control
[15] = system: Mast/stem cell growth factor receptor Kit (Homo sapiens), P10721 [D816V]; assay: Inhibition of T7 bacteriophage fused human KIT D816V mutant at 10 uM by KINOMEscan analysis relative to control
[16] = biological target: Myosin light chain kinase (Homo sapiens) (UniProt Q32MK0); assay: Inhibition of T7 bacteriophage fused human MLCK at 10 uM by KINOMEscan analysis relative to control
[17] = biological target: Phosphatidylinositol 4-phosphate 5-kinase type-1 alpha (Homo sapiens) (UniProt Q99755); assay: Inhibition of T7 bacteriophage fused human PIP5K1A at 10 uM by KINOMEscan analysis relative to control
[18] = biological target: Proto-oncogene tyrosine-protein kinase receptor Ret (Homo sapiens) (UniProt P07949); assay: Inhibition of T7 bacteriophage fused human RET at 10 uM by KINOMEscan analysis relative to control
[19] = biological target: Protein-tyrosine kinase 2-beta (Homo sapiens) (UniProt Q14289); assay: Inhibition of T7 bacteriophage fused human PYK2 at 10 uM by KINOMEscan analysis relative to control
[20] = biological target: Serine/threonine-protein kinase tousled-like 1 (Homo sapiens) (UniProt Q9UKI8); assay: Inhibition of T7 bacteriophage fused human TLK1 at 10 uM by KINOMEscan analysis relative to control
[21] = system: Phosphatidylinositol 4,5-bisphosphate 3-kinase catalytic subunit alpha isoform (Homo sapiens), P42336 [H1047Y]; assay: Inhibition of T7 bacteriophage fused human PIK3CA H1047Y mutant at 10 uM by KINOMEscan analysis relative to control
[22] = biological target: Myosin light chain kinase 2, skeletal/cardiac muscle (Homo sapiens) (UniProt Q9H1R3); assay: Inhibition of T7 bacteriophage fused human MYLK2 at 10 uM by KINOMEscan analysis relative to control; values are per cent of control
[23] = biological target: Phosphatidylinositol 5-phosphate 4-kinase type-2 gamma (Homo sapiens) (UniProt Q8TBX8); assay: Inhibition of T7 bacteriophage fused human PIP5K2C at 10 uM by KINOMEscan analysis relative to control
Phosphatidylinositol 5-phosphate 4-kinase type-2 gamma (Homo sapiens), sequence (Q8TBX8 whole entry, the tested form may be a part): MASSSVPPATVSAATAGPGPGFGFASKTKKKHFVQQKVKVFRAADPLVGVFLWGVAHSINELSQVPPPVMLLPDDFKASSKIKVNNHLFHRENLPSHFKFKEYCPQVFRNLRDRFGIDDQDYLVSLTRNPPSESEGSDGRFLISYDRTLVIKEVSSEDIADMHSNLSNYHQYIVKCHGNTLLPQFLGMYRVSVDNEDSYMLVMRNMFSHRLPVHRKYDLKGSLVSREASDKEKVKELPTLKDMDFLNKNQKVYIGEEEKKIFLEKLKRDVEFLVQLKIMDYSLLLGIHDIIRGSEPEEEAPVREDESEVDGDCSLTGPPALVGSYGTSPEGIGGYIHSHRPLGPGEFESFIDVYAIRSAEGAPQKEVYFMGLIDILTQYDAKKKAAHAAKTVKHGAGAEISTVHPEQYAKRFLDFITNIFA

[24] = biological target: cGMP-dependent protein kinase 2 (Homo sapiens) (UniProt Q13237); assay: Inhibition of T7 bacteriophage fused human PRKG2 at 10 uM by KINOMEscan analysis relative to control
[25] = biological target: Serine/threonine-protein kinase pim-2 (Homo sapiens) (UniProt Q9P1W9); assay: Inhibition of T7 bacteriophage fused human PIM2 at 10 uM by KINOMEscan analysis relative to control
Serine/threonine-protein kinase pim-2 (Homo sapiens), sequence (Q9P1W9 whole entry, looked up, the tested form may be a part): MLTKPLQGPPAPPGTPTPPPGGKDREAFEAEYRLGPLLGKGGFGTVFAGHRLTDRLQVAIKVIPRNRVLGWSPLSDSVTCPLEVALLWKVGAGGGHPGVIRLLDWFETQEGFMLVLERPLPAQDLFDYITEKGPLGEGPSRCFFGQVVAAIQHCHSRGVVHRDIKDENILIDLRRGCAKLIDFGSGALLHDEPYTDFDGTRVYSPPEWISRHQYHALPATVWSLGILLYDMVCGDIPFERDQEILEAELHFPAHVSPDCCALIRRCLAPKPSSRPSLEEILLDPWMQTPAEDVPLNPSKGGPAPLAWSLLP

[26] = biological target: Serine/threonine-protein kinase PAK 1 (Homo sapiens) (UniProt Q13153); assay: Inhibition of T7 bacteriophage fused human PAK1 at 10 uM by KINOMEscan analysis relative to control
Serine/threonine-protein kinase PAK 1 (Homo sapiens), sequence (Q13153 whole entry, looked up, the tested form may be a part): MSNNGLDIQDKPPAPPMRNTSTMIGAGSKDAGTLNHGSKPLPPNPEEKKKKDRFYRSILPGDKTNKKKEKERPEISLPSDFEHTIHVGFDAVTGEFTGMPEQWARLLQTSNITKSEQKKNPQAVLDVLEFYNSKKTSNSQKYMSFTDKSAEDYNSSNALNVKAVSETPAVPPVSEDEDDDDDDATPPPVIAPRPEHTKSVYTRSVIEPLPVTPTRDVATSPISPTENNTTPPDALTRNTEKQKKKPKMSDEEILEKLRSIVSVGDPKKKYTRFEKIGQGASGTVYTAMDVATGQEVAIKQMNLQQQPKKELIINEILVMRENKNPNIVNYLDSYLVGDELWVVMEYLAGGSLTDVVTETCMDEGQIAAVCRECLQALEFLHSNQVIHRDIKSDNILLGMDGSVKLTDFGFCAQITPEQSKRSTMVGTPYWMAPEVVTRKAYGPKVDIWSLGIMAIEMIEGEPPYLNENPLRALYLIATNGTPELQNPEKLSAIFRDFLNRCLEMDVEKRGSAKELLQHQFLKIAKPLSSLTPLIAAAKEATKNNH

[27] = biological target: Ribosomal protein S6 kinase alpha-4 (Homo sapiens) (UniProt O75676); assay: Inhibition of T7 bacteriophage fused human C-terminal RPS6KA4 Kinase domain-2 at 10 uM by KINOMEscan analysis relative to control
[28] = biological target: Serine/threonine-protein kinase NLK (Homo sapiens) (UniProt Q9UBE8); assay: Inhibition of T7 bacteriophage fused human NLK at 10 uM by KINOMEscan analysis relative to control; values are per cent of control
[29] = biological target: Aurora kinase A (Homo sapiens) (UniProt O14965); assay: Inhibition of T7 bacteriophage fused human AURKA at 10 uM by KINOMEscan analysis relative to control
Aurora kinase A (Homo sapiens), sequence (O14965 whole entry, the tested form may be a part): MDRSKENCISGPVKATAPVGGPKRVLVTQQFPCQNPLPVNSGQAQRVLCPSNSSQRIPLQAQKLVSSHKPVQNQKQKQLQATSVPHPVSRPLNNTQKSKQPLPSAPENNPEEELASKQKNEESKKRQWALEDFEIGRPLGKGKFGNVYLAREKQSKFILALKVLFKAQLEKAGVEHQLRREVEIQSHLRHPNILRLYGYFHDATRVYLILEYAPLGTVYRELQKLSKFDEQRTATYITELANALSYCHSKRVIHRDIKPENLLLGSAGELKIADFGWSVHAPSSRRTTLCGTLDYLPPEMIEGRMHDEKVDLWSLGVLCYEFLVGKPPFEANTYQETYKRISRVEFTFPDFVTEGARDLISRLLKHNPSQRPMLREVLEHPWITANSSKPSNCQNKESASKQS

[30] = biological target: Mitogen-activated protein kinase kinase kinase kinase 1 (Homo sapiens) (UniProt Q92918); assay: Inhibition of T7 bacteriophage fused human HPK1 at 10 uM by KINOMEscan analysis relative to control

COc1cc(N2CCC(N3CCN(C)CC3)CC2)ccc1Nc1ncc2c(n1)N(C)c1ccccc1C(=O)N2C
inhibition [1]: 100% | inhibition [2]: 65% | residual activity [3]: 95% | inhibition [4]: 2.8% | residual activity [5]: 34% | inhibition [6]: 100% | inhibition [7]: 97% | inhibition [8]: 86% | inhibition [9]: 79% | inhibition [10]: 100% | inhibition [11]: 100% | residual activity [12]: 59% | inhibition [13]: 13% | inhibition [14]: 38% | inhibition [15]: 72% | inhibition [16]: 100% | inhibition [17]: 90% | inhibition [18]: 100% | inhibition [19]: 78% | inhibition [20]: 100% | inhibition [21]: 71% | residual activity [22]: 98% | inhibition [23]: 40% | inhibition [24]: 74% | inhibition [25]: 100% | inhibition [26]: 95% | inhibition [27]: 46% | residual activity [28]: 50% | inhibition [29]: 1.2% | inhibition [30]: 100%
